Reference: patent publication US8124788B2, “Spirocyclic cyclohexane compounds with analgesic activity” (Gruenenthal GmbH, priority 2006, dated 2012)
Where a name gives a salt, the structure may show the parent alone.

Experiments:
human μ opiate receptor = molecular target: T1, human μ opiate receptor (Homo sapiens, UniProt P35372); assay: Affinity for the human μ opiate receptor ([3H]-naloxone displacement, CHO-K1 membrane preparation, SPA); format: binding; details: for inhibition at 1 µM: read-out: μ opioid receptor [1 μM], % inhibition; for Ki: Cheng-Prusoff conversion from IC50, read-out: μ opioid receptor, Ki
T1 construct: purchased PerkinElmer Life Sciences, Zaventem, Belgium RB-HOM; host or cells: CHO-K1 cells (recombinant expression)
Procedure, shortened: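 CHO-K1 membranes expressing human μ receptor (15-40 μg protein/250 μl) were incubated 90 min at room temperature with 1 nmol/l [³H]-naloxone and WGA-SPA beads in 50 mmol/l Tris-HCl with 0.06% BSA; 100 μmol/l naloxone defined nonspecific binding. Percent displacement measured at 1 μmol/l; IC50 converted to Ki via Cheng-Prusoff.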

[1] = system: phenylquinone-induced writhing in mice; assay: Phenylquinone writhing; format: in vivo; details: 10 mg/kg intravenously, male NMRI mice
Procedure: The analgesic activity was investigated in the phenylquinone-induced writhing in mice (modified in accordance with I. C. Hendershot und J. Forsaith (1959) J. Pharmacol. Exp. Ther. 125, 237-240), Male NMRI mice weighing from 25 to 30 g were used for this. Groups of 10 animals per substance dose received 0.3 ml/mouse of a 0.02% strength aqueous solution of phenylquinone (phenylbenzoquinone, Sigma, Deisenhofen; preparation of the solution with the addition of 5% ethanol and storage in a water bath at 45° C.) administered intraperitoneally 10 minutes after intravenous administration of the test substances. The animals were placed individually in observation cages. The number of pain-induced stretching movements (so-called writhing reactions=straightening of the body with stretching of the rear extremities) was counted by means of a push-button counter 5 to 20 minutes after the administration of phenylquinone. Animals which receive only 5% strength Cremophor solution were also run as a control. All the substances were tested in the standard dosage of 10 mg/kg. The percentage inhibition (% inhibition) of the writhing reaction by a substance was calculated according to the following formula: […]

Serotonin reuptake = molecular target: T2, Serotonin reuptake (Rattus norvegicus, UniProt P31652); assay: Inhibition of serotonin (5HT) reuptake in rat brain synaptosomes; format: biochemical
T2 construct: synaptosomes are freshly isolated from areas of the rat brain; from tissue
Procedure: (§1) In order to be able to carry out these in vitro studies, synaptosomes are freshly isolated from areas of the rat brain. In each case a so-called “P2” fraction prepared in accordance with the instruction of Gray and Whittaker (E. G. Gray and V. P. Whittaker (1962) J. Anat. 76, 79-88) is prepared. For the NA uptake, these vesicular particles are isolated from the hypothalamus of male rat brains.
(§2) A detailed description of the method can be found in the literature (M. Ch. Frink, H.-H. Hennies, W. Englberger, M. Haurand and B. Wilffert (1996) Arzneim.-Forsch./Drug Res. 46 (III), 11, 1029-1036).

Noradrenaline reuptake = molecular target: T3, Noradrenaline reuptake (Rattus norvegicus, UniProt Q63380); assay: Inhibition of noradrenaline (NA) reuptake in rat brain synaptosomes; format: biochemical; details: synaptosomes from rat hypothalamus
T3 construct: synaptosomes are freshly isolated from areas of the rat brain; from tissue; host or cells: P2 synaptosome fraction from the hypothalamus of male rat brains
Procedure: as §1, §2

[2] = 1 μM test substance, displacement of [3H]-naloxone

T3 sequence (Q63380 1-617): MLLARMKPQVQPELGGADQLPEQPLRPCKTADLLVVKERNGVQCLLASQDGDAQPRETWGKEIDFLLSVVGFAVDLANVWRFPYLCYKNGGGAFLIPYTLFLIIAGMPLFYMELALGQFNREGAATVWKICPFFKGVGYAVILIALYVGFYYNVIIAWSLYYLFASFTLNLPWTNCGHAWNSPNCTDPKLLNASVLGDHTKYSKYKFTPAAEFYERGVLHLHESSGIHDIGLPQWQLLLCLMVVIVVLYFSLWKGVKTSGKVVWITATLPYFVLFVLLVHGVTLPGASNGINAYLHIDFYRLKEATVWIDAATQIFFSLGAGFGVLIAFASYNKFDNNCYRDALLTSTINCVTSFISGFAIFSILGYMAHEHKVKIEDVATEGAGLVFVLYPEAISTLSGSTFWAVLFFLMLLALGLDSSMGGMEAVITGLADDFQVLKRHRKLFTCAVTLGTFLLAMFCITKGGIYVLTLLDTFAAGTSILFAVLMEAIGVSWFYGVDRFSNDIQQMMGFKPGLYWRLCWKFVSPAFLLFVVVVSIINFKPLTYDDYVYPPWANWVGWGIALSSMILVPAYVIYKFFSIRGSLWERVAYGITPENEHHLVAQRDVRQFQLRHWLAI
T2 sequence (P31652 whole entry): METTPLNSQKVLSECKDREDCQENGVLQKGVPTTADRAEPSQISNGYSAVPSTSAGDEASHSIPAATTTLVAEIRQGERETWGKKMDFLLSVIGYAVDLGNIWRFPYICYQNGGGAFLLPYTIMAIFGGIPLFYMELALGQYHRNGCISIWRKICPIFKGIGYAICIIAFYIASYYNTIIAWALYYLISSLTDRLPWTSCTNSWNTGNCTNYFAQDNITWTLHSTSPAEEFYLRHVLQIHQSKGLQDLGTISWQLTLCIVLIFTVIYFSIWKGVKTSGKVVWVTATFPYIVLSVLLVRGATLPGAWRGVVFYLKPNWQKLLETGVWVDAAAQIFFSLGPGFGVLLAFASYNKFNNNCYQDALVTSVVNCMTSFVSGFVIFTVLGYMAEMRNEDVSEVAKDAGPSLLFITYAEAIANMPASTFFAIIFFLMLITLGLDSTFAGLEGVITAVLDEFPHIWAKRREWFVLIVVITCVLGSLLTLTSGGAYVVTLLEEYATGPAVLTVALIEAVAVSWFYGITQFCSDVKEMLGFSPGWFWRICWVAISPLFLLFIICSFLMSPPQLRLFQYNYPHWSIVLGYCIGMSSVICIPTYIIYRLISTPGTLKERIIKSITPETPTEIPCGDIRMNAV
T1 sequence (P35372 whole entry): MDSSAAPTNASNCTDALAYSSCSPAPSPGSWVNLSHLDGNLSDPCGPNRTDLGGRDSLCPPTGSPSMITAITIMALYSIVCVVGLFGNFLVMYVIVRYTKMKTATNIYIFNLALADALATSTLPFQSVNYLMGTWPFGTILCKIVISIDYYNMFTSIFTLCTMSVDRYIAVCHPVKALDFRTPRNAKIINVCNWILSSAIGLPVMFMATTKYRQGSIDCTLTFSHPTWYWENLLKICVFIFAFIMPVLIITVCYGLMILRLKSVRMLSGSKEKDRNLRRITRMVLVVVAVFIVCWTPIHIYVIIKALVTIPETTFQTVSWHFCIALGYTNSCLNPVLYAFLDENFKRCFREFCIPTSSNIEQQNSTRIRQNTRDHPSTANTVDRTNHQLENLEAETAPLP

| SMILES | melting point | μ opioid receptor [1 μM], % inhibition (human μ opiate receptor; [2]) | % inhibition of the writhing reaction (dosage in mg/kg intravenously) [1] | Serotonin reuptake, % inhibition [10 μM] (Serotonin reuptake) | inhibition at 1 µM (human μ opiate receptor; [2]) | Ki (human μ opiate receptor) | inhibition at 10 µM (Noradrenaline reuptake) | inhibition at 10 µM (Serotonin reuptake) |
| --- | --- | --- | --- | --- | --- | --- | --- | --- |
| CN(C)C(CCc1ccccc1)C1CCC2(CC1)NCCc1c2[nH]c2ccccc12 (stereo not drawn) (as salt: citrate) [Compound 20, 1,1-[3-(Dimethylamino-(phenylethyl)-methyl)-pentamethylene]-3,4-dihydro-1H-2,9-diazafluorene Citrate] | 130 to 135 °C | – | – | – | – | – | – | – |
| Cc1ccc2[nH]c3c(c2c1)CC(C)OC31CCC(C(c2ccccc2)N(C)C)CC1 (stereo not drawn) (as salt: citrate) [Compound 42, 3,6-Dimethyl-1,1-[3-(dimethylamino-(phenyl)-methyl)-pentamethylene]-1,3,4,9-tetrahydropyrano[3,4-b]indole Citrate] | 245 to 250 °C | – | – | – | – | – | – | – |
| CN(C)C(c1ccc(F)cc1)C1CCC2(CC1)NCCc1c2[nH]c2ccccc12 (stereo not drawn) [Compound 17, 1,1-[3-(Dimethylamino-(4-fluorophenyl)methyl)-pentamethylene]-3,4-dihydro-1H-2,9-diazafluorene] | – | 46% | 52 (10) % | 83% | – | – | – | – |
| CN(C)C(c1cccc(F)c1)C1CCC2(CC1)NCCc1c2[nH]c2ccccc12 (stereo not drawn) [Compound 18, 1,1-[3-(Dimethylamino-(3-fluorophenyl)methyl)-pentamethylene]-3,4-dihydro-1H-2,9-diazafluorene] | 226 to 229 °C | – | – | – | 74% | 260 nM | 58% | 64% |
| CN(C)C(c1ccccc1)C1CCC2(CC1)NCCc1c2[nH]c2ccccc12 (stereo not drawn) [Compound 19, 1,1-[3-(Dimethylamino-phenylmethyl)-pentamethylene]-3,4-dihydro-1H-2,9-diazafluorene] | 182 to 184 °C | – | – | – | 81% | 180 nM | 65% | 91% |
| CN(C)C(CCc1ccccc1)C1CCC2(CC1)NCCc1c2[nH]c2ccccc12 (stereo not drawn) [Compound 20, 1,1-[3-(Dimethylamino-(phenylethyl)-methyl)-pentamethylene]-3,4-dihydro-1H-2,9-diazafluorene Citrate] | – | – | 45 (10) % | – | 97% | 34 nM | 91% | 84% |
| CN(C)C(c1ccccc1)C1CCC2(CC1)OCCc1c2[nH]c2ccccc12 (stereo not drawn) [Compound 27, 1,1-[3-(Dimethylamino-(phenyl)-methyl)-pentamethylene]-1,3,4,9-tetrahydropyrano[3,4-b]indole Citrate] | – | – | 53 (10) % | – | 99% | 26 nM | 64% | 73% |
| CN(C)C(c1cccs1)C1CCC2(CC1)OCCc1c2[nH]c2ccccc12 (stereo not drawn) [Compound 29, 1,1-[3-(Dimethylamino-(thiophen-2-yl)-methyl)-pentamethylene]-1,3,4,9-tetrahydro-pyrano[3,4-b]indole] | – | – | 73 (10) % | – | 99% | 15 nM | – | 45% |
| CN(C)C(c1ccc(Cl)cc1)C1CCC2(CC1)OCCc1c2[nH]c2ccccc12 (stereo not drawn) [Compound 30, 1,1-[3-(Dimethylamino-(4-chlorophenyl)-methyl)-pentamethylene]-1,3,4,9-tetrahydro-pyrano[3,4-b]indole] | – | – | 45 (10) % | – | 84% | 170 nM | – | 56% |
| CN(C)C(c1ccc(F)cc1)C1CCC2(CC1)OCCc1c2[nH]c2ccc(F)cc12 (stereo not drawn) [Compound 35, 6-Fluoro-1,1-[3-(dimethylamino-(4-fluorophenyl)-methyl) -pentamethylene]-1,3,4,9-tetrahydropyrano[3,4-b]indole] | – | – | – | – | 98% | 67 nM | 50% | 55% |
| CN(C)C(c1ccc(Cl)cc1)C1CCC2(CC1)OCCc1c2[nH]c2ccc(F)cc12 (stereo not drawn) [Compound 38, 6-Fluoro-1,1-[3-(dimethylamino-(4-chlorophenyl)-methyl)-pentamethylene]-1,3,4,9-tetrahydropyrano[3,4-b]indole] | – | – | – | – | 84% | 260 nM | 59% | 57% |
| Cc1ccc2[nH]c3c(c2c1)CC(C)OC31CCC(C(c2cccc(F)c2)N(C)C)CC1 (stereo not drawn) [Compound 41, 3,6-Dimethyl-1,1-[3-(dimethylamino-(3-fluorophenyl)-methyl) -pentamethylene]-1,3,4,9-tetrahydropyrano[3,4-b]indole] | – | – | 40 (10) % | – | 88% | 300 nM | – | – |
| Cc1ccc2[nH]c3c(c2c1)CC(C)OC31CCC(C(c2ccc(Cl)cc2)N(C)C)CC1 (stereo not drawn) [Compound 44, 3,6-Dimethyl-1,1-[3-(dimethylamino-(4-chlorophenyl)-methyl) -pentamethylene]-1,3,4,9-tetrahydropyrano[3,4-b]indole] | – | – | 48 (10) % | – | 72% | 490 nM | – | – |
| CC1Cc2c([nH]c3ccc(F)cc23)C2(CCC(C(c3ccccc3)N(C)C)CC2)O1 (stereo not drawn) [Compound 53, 6-Fluoro-3-methyl-1,1-[3-(dimethylamino-(phenyl)-methyl) -pentamethylene]-1,3,4,9-tetrahydropyrano[3,4-b]indole] | – | – | – | – | 97% | 82 nM | 47% | 60% |
